From patent US11149020B2, “MAP kinase modulators and uses thereof” (The Trustees of Columbia University in the City of New York, priority 2013, dated 2021) come the findings set out here.

SMILES strings stand for the structures.

In one data set the test system is panel of 158 GPCRs. Kind of data set: Millipore GPCR Profiler cell-based functional screen (calcium flux FLIPR). The text has this: Compounds were screened in vivo using a standard dose escalation screen in mice coupled with clinical observation and testing based on the SHIRPA mouse phenotype assay paradigm (Mammalian Genome 8, 711-719 SHIRPA (1997); herein incorporated by reference in its entirety). To obtain insight into the potential for off-target activity with the largest known family of small molecule drug targets, G-protein coupled receptors (GPCRs), a cell-based functional screen of the final title compounds was done. The Millipore® GPCR Profiler screen employs the ChemiScreen GPCR stable cell line technology used for real-time calcium flux FLIPR assays on a panel of 158 GPCRs. The NCBI Entrez identifier for each GPCR is provided at the vendor site (www.millipore.com). Follow-up validation of any initial hits as being true positives or negatives was done as described above for protein kinases by testing the concentration dependence of any cellular effects.

Data set [1] deals with LPS-induced IL-1β in brain cortex. Kind of data set: In vivo LPS-induced brain cortex IL-1β. Set-up: species or system mouse. The note with it: oral administration, 20 mg/Kg, 6 hrs after LPS.
The test system of data set [2] is Aβ42-infused mice. Kind of data set: 2-day radial arm water maze (RAWM) in Aβ42-infused mice. The format is in vivo, mouse. The note with it: 5 mg/Kg, i.p.
In another data set the test system is >291 protein kinases. Kind of data set: Millipore Profiler large-scale kinome screen.
For data set [3], the system named is Aβ42-treated hippocampal slices. Nature of the data set: LTP in hippocampal slices treated with oligomeric Aβ42. The note with it: 10 μM, 200 nM Aβ42. Set-up: species or system mouse.
In data set [4] the test system is murine microglial BV-2 cell line. Kind of data set: cells. The format is cell-based. The note with it: for IL-1β production with diverse TLR ligands: BV-2 cells, TLR2, TLR4, TLR7/8, TLR9 ligands.
Data set [5] deals with Aβ42-infused mice. Kind of data set: Contextual fear conditioning in Aβ42-infused mice. Type of data set: in vivo, mouse. The following applies: 5 mg/Kg, i.p.
Data set [6] can be described thus: Repeat dosing, observation of adverse events. The format is in vivo, mouse. The following applies: aged or diseased animals. The text has this:
Further, the results in a battery of behavioral tests are consistent with a true hippocampus-dependent mechanism of action in attenuation of memory deficits. […] The selective improvement in cognitive behavior was also brought about with no effect on amyloid plaque load (Wilcock, D. M., and Colton, C. A. (2009) Immunotherapy, vascular pathology and microhemorrhages in transgenic mice. CNS Neurol. Disord.: Drug Targets 8, 50-64, herein incorporated by reference in its entirety).

Data set [7] has as its system APP/PS1 transgenic and APP/PS1 knock-in mice. Kind of data set: β-amyloid plaque count, 6E10 immunohistochemistry. The format is in vivo, mouse. Here is the method:
Histopathology. Immunohistochemistry was performed using the Ventana BenchMark Ultra automated platform. Tissue sections were first deparaffinized using Ventana's “ez-prep” solution. Antigen retrieval was performed by treatment at 95° C. for 54 minutes using Ventana's CC1 (pH 7.3) solution, followed by treatment with 0.3% hydrogen peroxide to block endogenous peroxidase. Tissue sections were then incubated in protein-free block (Biocare's background sniper) for 15 min to inhibit nonspecific binding. Primary antibody (anti-Aβ 6E10 at 1:400, Biocare Medical) was incubated for 32 min at room temperature. […] A board-certified neuropathologist, who was blinded to the treatment versus the control group, analyzed a sagittal section from each mouse and counted the total number of well-formed β-amyloid plaques.
MW-150 treatment improves cognitive performance in the absence of effect on Aβ plaque burden. […] (FIG. 26C) Quantification by a board-certified neuropathologist blinded to the treatment groups was done by analysis of a brain sagittal section from each mouse in which the total number of well-formed β-amyloid plaques in the entire section were counted. […] (FIG. 26D) In a separate experiment with APP/PS1 knock-in (KI) mice, Aβ plaques were quantified from KI mice treated with MW-150 or vehicle.

Data set [8] concerns APP/PS1 mice. Nature of the data set: LTP in APP/PS1 mice. Type of data set: in vivo, mouse. The following applies: 2.5 mg/kg, daily, p.o., from 2 months until 3-4 months of age.
In data set [9] the test system is APP/PS1 mice. Nature of the data set: Fear conditioning (contextual and cued) in APP/PS1 mice. The following applies: 2.5 mg/kg, daily, p.o., from 2 months of age.
Data set [10] concerns APP/PS1 mice. Nature of the data set: RAWM in APP/PS1 mice. The note with it: 2.5 mg/kg, daily, p.o., from 2 months of age.
In data set [11] the test system is synaptic depression induced by OGD. Kind of data set: Oxygen glucose deprivation (OGD) in entorhinal slices, field potentials. The note with it: 10 μM, 10 min OGD. Here is the method: Slice preparation. Animals were anesthetized using urethane (20% solution, 1 mL/100 g body weight) via intraperitoneal injection and then decapitated after disappearance of the tail pinch reflex. After brain removal, horizontal sections (400 μm in thickness), containing the entorhinal area, were made on a Vibratome. All steps were performed in ice-cold oxygenated ACSF solution. Before recording, slices were stored for at least 1 h in a recovery chamber containing oxygenated ACSF solution at room temperature. For electrophysiology, slices were perfused at a rate of 2.5-3 mL/min with oxygenated ACSF at 33±1° C. […] The amplitude of FP was monitored every 20 s and averaged every three responses by online data acquisition software. Effects on synaptic function were evaluated either during ischemia (as the average of FPs amplitude during the last 3 min of 10 min OGD application) or as the recovery of FPs calculated as the averaged relative amplitude of FPs respect to the baseline values after reintroduction of regular ACSF (from 41st to 50th min after the end of OGD). […]

In general, IC50 refers to the concentration needed to halve the response being measured. Take `CN(C)c1cc(-c2ccncc2)c(-c2ccc3ccccc3c2)nn1` [MW-108 (2)]: the GPCR screen result in the data set with panel of 158 GPCRs was “negative”. Moreover, the “LPS-induced IL-1β levels in brain cortex” value in [1] was “restored IL-1β levels in the brain cortex back towards control”. The “reference memory deficit (RAWM) in Aβ42-infused mice” value with Aβ42-infused mice [2] is recorded as “rescued the memory defects”. The “large scale kinase screen result” value with >291 protein kinases is “negative”. Further, in [3], the “LTP deficit in Aβ42-treated slices” value was “ameliorated the Aβ-induced electrophysiological deficit”. Moreover, the “IL-1β production with diverse TLR ligands” value in [4] is listed as “also seen in BV-2 cells stimulated with diverse TLR ligands”. Besides, in data set [4] (Mus musculus, LPS-stimulated BV-2 cells, 18 hrs, read-out: IC50 using inhibition of IL-1β overproduction as end point), the 50% inhibitory concentration (IC50) stood at 610 ± 20 nM. The “contextual fear memory deficit in Aβ42-infused mice” value with Aβ42-infused mice [5] is “prevented by MW-108 (2) administration”.

As to `CN1CCN(c2cc(-c3ccncc3)c(-c3ccc4ccccc4c3)nn2)CC1` [27 (MW-150), 6-(4-methylpiperazine-1-yl)-3-(naphthalen-2-yl)-4-(pyridin-4-yl)pyridazine], in data set [6], the “adverse events with repeat dosing” value was “did not bring about any observed adverse events”. Also, the amyloid plaque burden result in data set [7] is given as “no effects of MW-150 treatment on the amyloid plaque burden”. Besides, the “LTP defect in APP/PS1 mice” value in the data set with APP/PS1 mice [8] is “rescue defects in LTP”. Besides, in the data set with APP/PS1 mice [9], the “contextual fear memory defect in APP/PS1 mice” value was “rescue the defect in contextual fear learning”. In addition, the “spatial/reference memory defect (RAWM) in APP/PS1 mice” value in the data set on APP/PS1 mice [10] is reported as “rescue defects in spatial memory”. The “synaptic depression induced by OGD” value in [11] is given as “ameliorated”.

As to `CN(C)c1cc(-c2ccncc2)c(-c2cccc3ccccc23)nn1` [MW-181 (1)], in data set [1], the “LPS-induced IL-1β levels in brain cortex” value is given as “in vivo suppression of increased brain levels of IL-1β after oral administration”. In addition, the “IL-1β production with diverse TLR ligands” value in [4] is “inhibition of increased cytokine production by glia in response to LPS (IC50=820±30 nM) and other TLR ligands”.
